This is an account of results in patent US8088828B2, “Treating benign prostate hyperplasia with SARMS” (priority 2002, dated 2012).

Holding throughout (format): in vivo, rat
In assay [1] the test system is intact male Sprague-Dawley rats. In words: Prostate weight in intact Sprague-Dawley rats after 7 days of oral gavage.
For assay [2] the test system is unchanged. In words: Organ weights in intact male rats after 3, 6 or 9 days of daily subcutaneous injections. How it is done: Methods: Male Sprague-Dawley rats were purchased from Harlan Biosciences (Indianapolis, Ind.). The animals were maintained on a 12-h cycle of light and dark with food and water available ad libitum. Male Sprague-Dawley rats weighing 189 to 226 g were randomly distributed into groups of 5 animals. The intact male rats were treated with hydroxy-flutamide (0.5, 1, 5, 10 or 25 mg/kg), finasteride (5 mg/kg), Compound VII (0.5, 1, 5, 10, 25 mg/kg) or vehicle for 3, 6, or 9 days. The drugs were dissolved in DMSO:PEG300 (20:80, v:v) and administered via daily subcutaneous injections, and the dosages were adjusted based on animal's body weight, which was measured on a daily basis. A group of castrated rats (n=5) was also included as control for each time point. […] The organ weights were normalized with the body weights. Percentage changes were determined by comparison to intact animals. Statistical analyses of all the parameters were performed by single-factor ANOVA with the alpha value set a priori at p<0.05.

Assay [3] has as its system intact male rats. In words: Compound VII 0.5 mg/day in intact male rats, organ weights.
The mark [4] stands for this setting: 3 days, in general over 0.5, 1, 5, 10, 25 mg/kg s.c.
[5] abbreviates: 9 days, high doses (5, 10, 25 mg/kg) s.c.

Turning to `C[C@](O)(COc1ccc(F)cc1)C(=O)Nc1ccc([N+](=O)[O-])c(C(F)(F)F)c1` [Compound VII], the “atrophy in prostate on increasing the dose 100-fold” value in assay [1] (10 mg/kg compared to 1000 mg/kg as printed) is on record as “did not significantly increase”. Further, in assay [1] (all treatment groups, oral gavage once daily for 7 days, p<0.01), the “reduction of prostate weight (normalized to body weight) compared to the intact control” value is “greater than 48.4%”. The “effect on levator ani muscle weight” value in assay [2] (3 days, 0.5, 1, 5, 10, 25 mg/kg s.c.) was “without affecting”; in assay [3], “without affecting”. For the same molecule, the “prostate weight (compared to intact animals)” value in assay [2] (setting [4]) worked out at 80%; in assay [2] (setting [5]) it was 50%. The “seminal vesicle weight (compared to intact animals)” value in assay [2] (setting [4]) amounted to 70%; in assay [2] (setting [5]) it was 45%. In addition, the “changes in levator ani muscle weights” value in assay [2] (6 days, 5, 10, 25 mg/kg s.c.) is “none of these doses caused any significant changes”; in assay [2] (9 days, most of the dose groups s.c.) it was “no significant changes”. The “increase of levator ani muscle weight” value in assay [2] (9 days, 25 mg/kg s.c.) turned out to be 12%. Also, the “levator ani muscle weight (compared to intact animals)” value in assay [2] (9 days, highest dose group (25 mg/kg) s.c.) was determined as 112%. Besides, the prostate weight in assay [3] is 63 % of that observed in vehicle-treated intact animals.
